According to patent US9223210B2, “Photosensitive compound, photosensitive resin, and photosensitive composition” (TOYO GOSEI CO., LTD., priority 2012, dated 2015):

What was measured:
[1] = Solubility in neutral water (Test Example 1); assay type: physicochemical; settings: 100 g of neutral water, water temperature 20° C.
Experimental: (§1) Solubility of each of the photosensitive compounds produced in Comparative Synthesis Examples 1 to 2 and Examples 2 to 5 (comparative photosensitive materials H and I, and photosensitive materials C to F) in 100 g of neutral water (water temperature: 20° C.) was assessed. The solubility in an aqueous phosphoric acid solution (liquid temperature: 20° C.) obtained by mixing phosphoric acid (4 g) and water (100 g), was also determined.

[2] = Solubility in aqueous phosphoric acid solution (Test Example 1); assay type: physicochemical; settings: for Solubility in aq. phosphoric acid solution (104 g): liquid temperature 20° C., amount dissolved (complete dissolution where stated); for Solubility in aqueous phosphoric acid solution (in words): summary of Table 1
Experimental: as §1

[3] = phosphoric acid (4 g) and water (100 g)

Row | Solubility in water (100 g) [1] | Solubility in aq. phosphoric acid solution (104 g) [2, 3] | Solubility in aq. phosphoric acid solution (104 g), partial dissolution ([2]; phosphoric acid (4 g) and water (100 g), 20° C., amount giving only partial dissolution) | Compound | Solubility in aqueous phosphoric acid solution (in words) [2]
1 | ≦0.1 g | 5 g (complete | – | COC(CCCNC(=O)C(=Cc1ccc(N=[N+]=[N-])cc1)NC(=O)c1ccc(CN2CCOCC2)cc1)OC [Photosensitive material C, 3-(4-azidophenyl)-N-(4,4′-dimethoxybutyl)-2-(4-morpholinomethylphenyl)carbonylamino-prop-2-enamide] | –
2 | ≦0.1 g | 5 g (complete | – | C=CCN(CC=C)Cc1ccc(C(=O)NC(=Cc2ccc(N=[N+]=[N-])cc2)C(=O)NCCCC(OC)OC)cc1 [Photosensitive material E, 3-(4-azidophenyl)-N-(4,4′-dimethoxybutyl)-2-(4-diallylaminomethylphenyl)carbonylamino-prop-2-enamide] | –
3 | ≦0.1 g | 0.2 g (complete | 0.4 g (partial | COC(CCCNC(=O)C(=Cc1cccnc1)NC(=O)C=Cc1ccc(N=[N+]=[N-])cc1)OC [Comp. Photosensitive material I, 2-(3-(4-azidophenyl)prop-2-enoylamino)-N-(4,4-dimethoxybutyl)-3-(3-pyridyl)prop-2-enamide] | lower than that of photosensitive materials C to F
4 | ≦0.1 g | ≦0.1 g | – | COC(CCCNC(=O)C(=Cc1ccc(N=[N+]=[N-])cc1)NC(=O)c1ccccc1)OC [Comp. Photosensitive material H, 3-(4-azidophenyl)-N-(4,4′-dimethoxybutyl)-2-phenylcarbonylamino-prop-2-enamide] | very low solubility
5 | ≦0.1 g | 5 g (complete | – | [N-]=[N+]=Nc1ccc(C=C(NC(=O)c2ccc(CN3CCOCC3)cc2)C(=O)NCCCC=O)cc1 [Photosensitive material F, 3-(4-azidophenyl)-N-(3-formylpropyl)-2-(4-morpholinomethylphenyl)carbonylamino-prop-2-enamide] | –

Row | Compound | Solubility in water (100 g) [1] | Solubility in aq. phosphoric acid solution (104 g) [2, 3] | Solubility in aq. phosphoric acid solution (104 g), partial dissolution ([2]; phosphoric acid (4 g) and water (100 g), 20° C., amount giving only partial dissolution) | Solubility in aqueous phosphoric acid solution (in words) [2]
6 | 3-(4-azidophenyl)-N-(4,4′-dimethoxybutyl)-2-(4-imidazolylmethylphenyl)carbonylamino-prop-2-enamide [Photosensitive material D] | ≦0.1 g | 5 g (complete | – | –
